Measured values from PubChem BioAssay (NCI).
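The compound was tested at five concentrations on cells cultured in 96-well plates, with a 48-hour exposure period. GI50: concentration for 50% inhibition of growth. TGI is the concentration that stops growth completely.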

Tests used:
Assay in all cases: NCI-60 cell line screen, 48 h
[1] = system: SNB-19 CNS
[2] = system: OVCAR-5 ovarian
[3] = system: OVCAR-3 ovarian
[4] = system: HCC-2998 colon
[5] = system: MCF7 breast
[6] = system: SF-295 CNS
[7] = system: OVCAR-8 ovarian
[8] = system: LOX IMVI melanoma
[9] = system: EKVX NSCLC
[10] = system: OVCAR-4 ovarian
[11] = system: NCI-H460 lung
[12] = system: A498 renal
[13] = system: SW-620 colon
[14] = system: HOP-62 NSCLC
[15] = system: MDA-MB-435
[16] = system: A549 NSCLC
[17] = system: COLO 205 colon
[18] = system: SK-MEL-28 melanoma
[19] = system: CCRF-CEM leukemia
[20] = system: IGROV1 ovarian
[21] = system: NCI/ADR-RES ovarian
[22] = system: SK-MEL-2 melanoma
[23] = system: ACHN renal
[24] = system: SNB-75 CNS
[25] = system: BT-549 breast
[26] = system: UO-31 renal
[27] = system: NCI-H23 lung
[28] = system: RXF 393 renal
[29] = system: UACC-257 melanoma
[30] = system: RPMI-8226 leukemia
[31] = system: MDA-MB-231 breast
[32] = system: KM12 colon
[33] = system: SK-OV-3 ovarian
[34] = system: HS 578T breast
[35] = system: DU-145 prostate
[36] = system: UACC-62 melanoma
[37] = system: U251 CNS
[38] = system: SR leukemia
[39] = system: M14 melanoma
[40] = system: CAKI-1 renal
[41] = system: K-562 leukemia
[42] = system: NCI-H522 lung
[43] = system: HL-60(TB) leukemia
[44] = system: MDA-MB-468 breast
[45] = system: PC-3 prostate
[46] = system: 786-0 renal
[47] = system: T-47D breast
[48] = system: SF-268 CNS
[49] = system: HOP-92 NSCLC
[50] = system: HT29 colon
[51] = system: SF-539 CNS
[52] = system: MOLT-4 leukemia
[53] = system: TK-10 renal
[54] = system: MALME-3M melanoma
[55] = system: SN12C renal
[56] = system: HCT-116 colon
[57] = system: NCI-H226 lung
[58] = system: HCT-15 colon
[59] = system: SK-MEL-5 melanoma

C#C[C@]1(O)CC[C@H]2[C@@H]3CC=C4c5sc(Nc6cc(C)cc(C)n6)nc5CC[C@]4(C)[C@H]3CC[C@@]21C
GI50 [1]: > 100 µM
TGI [1]: > 100 µM
GI50 [2]: > 100 µM
TGI [2]: > 100 µM
GI50 [3]: > 100 µM
TGI [3]: > 100 µM
GI50 [4]: > 100 µM
TGI [4]: > 100 µM
GI50 [5]: > 100 µM
TGI [5]: > 100 µM
GI50 [6]: > 100 µM
TGI [6]: > 100 µM
GI50 [7]: > 100 µM
TGI [7]: > 100 µM
GI50 [8]: > 100 µM
TGI [8]: > 100 µM
GI50 [9]: > 100 µM
TGI [9]: > 100 µM
GI50 [10]: > 100 µM
TGI [10]: > 100 µM
GI50 [11]: > 100 µM
TGI [11]: > 100 µM
GI50 [12]: > 100 µM
TGI [12]: > 100 µM
GI50 [13]: > 100 µM
TGI [13]: > 100 µM
GI50 [14]: > 100 µM
TGI [14]: > 100 µM
GI50 [15]: > 100 µM
TGI [15]: > 100 µM
GI50 [16]: > 100 µM
TGI [16]: > 100 µM
GI50 [17]: > 100 µM
TGI [17]: > 100 µM
GI50 [18]: > 100 µM
TGI [18]: > 100 µM
GI50 [19]: > 100 µM
TGI [19]: > 100 µM
GI50 [20]: > 100 µM
TGI [20]: > 100 µM
GI50 [21]: > 100 µM
TGI [21]: > 100 µM
GI50 [22]: > 100 µM
TGI [22]: > 100 µM
GI50 [23]: > 100 µM
TGI [23]: > 100 µM
GI50 [24]: > 100 µM
TGI [24]: > 100 µM
GI50 [25]: > 100 µM
TGI [25]: > 100 µM
GI50 [26]: > 100 µM
TGI [26]: > 100 µM
GI50 [27]: > 100 µM
TGI [27]: > 100 µM
GI50 [28]: > 100 µM
TGI [28]: > 100 µM
GI50 [29]: > 100 µM
TGI [29]: > 100 µM
GI50 [30]: > 100 µM
TGI [30]: > 100 µM
GI50 [31]: > 100 µM
TGI [31]: > 100 µM
GI50 [32]: > 100 µM
TGI [32]: > 100 µM
GI50 [33]: > 100 µM
TGI [33]: > 100 µM
GI50 [34]: > 100 µM
TGI [34]: > 100 µM
GI50 [35]: > 100 µM
TGI [35]: > 100 µM
GI50 [36]: > 100 µM
TGI [36]: > 100 µM
GI50 [37]: > 100 µM
TGI [37]: > 100 µM
GI50 [38]: > 100 µM
TGI [38]: > 100 µM
GI50 [39]: > 100 µM
TGI [39]: > 100 µM
GI50 [40]: > 100 µM
TGI [40]: > 100 µM
GI50 [41]: > 100 µM
TGI [41]: > 100 µM
GI50 [42]: > 100 µM
TGI [42]: > 100 µM
GI50 [43]: > 100 µM
TGI [43]: > 100 µM
GI50 [44]: > 100 µM
TGI [44]: > 100 µM
GI50 [45]: > 100 µM
TGI [45]: > 100 µM
GI50 [46]: > 100 µM
TGI [46]: > 100 µM
GI50 [47]: > 100 µM
TGI [47]: > 100 µM
GI50 [48]: > 100 µM
TGI [48]: > 100 µM
GI50 [49]: > 100 µM
TGI [49]: > 100 µM
GI50 [50]: > 100 µM
TGI [50]: > 100 µM
GI50 [51]: > 100 µM
TGI [51]: > 100 µM
GI50 [52]: > 100 µM
TGI [52]: > 100 µM
GI50 [53]: > 100 µM
TGI [53]: > 100 µM
GI50 [54]: > 100 µM
TGI [54]: > 100 µM
GI50 [55]: > 100 µM
TGI [55]: > 100 µM
GI50 [56]: > 100 µM
TGI [56]: > 100 µM
GI50 [57]: > 100 µM
TGI [57]: > 100 µM
GI50 [58]: > 100 µM
TGI [58]: > 100 µM
GI50 [59]: > 100 µM
TGI [59]: > 100 µM
